Measured values from article PMC4701174, “Novel Characteristics of Trypanosoma brucei Guanosine 5'-monophosphate Reductase Distinct from Host Animals” (PLoS Neglected Tropical Diseases, 2016).
One block for each molecule: values may come before it.

Tests used:
[1] = target: T1, T. brucei guanosine 5'-monophosphate reductase (TbGMPR) (Trypanosoma brucei, UniProt Q57ZS7); experiment: NADPH consumption at […] nm, Hill fit; format: biochemical
T1 construct: gene Tb05.1P6.110; recombinant TbGMPR coding region, GST fusion in E. coli, tag cleaved with PreScission protease

[2] = target: T2, HsGMPR2 (human GMPR type 2) (Homo sapiens, UniProt Q9P2T1); experiment: NADPH consumption at […] nm, Hill fit; format: biochemical
T2 construct: gene GMPR2; recombinant
T2 sequence (Q9P2T1 1-348): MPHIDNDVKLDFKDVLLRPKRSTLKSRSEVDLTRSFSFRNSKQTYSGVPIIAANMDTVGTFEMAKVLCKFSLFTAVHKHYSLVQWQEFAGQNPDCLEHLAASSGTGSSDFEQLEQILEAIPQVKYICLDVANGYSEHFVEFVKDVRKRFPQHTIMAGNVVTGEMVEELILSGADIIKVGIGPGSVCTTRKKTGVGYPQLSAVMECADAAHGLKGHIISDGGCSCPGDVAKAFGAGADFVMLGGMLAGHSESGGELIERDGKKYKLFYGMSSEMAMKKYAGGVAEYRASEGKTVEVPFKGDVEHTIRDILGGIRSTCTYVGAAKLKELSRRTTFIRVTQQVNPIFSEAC

[3] = target: T3, HsGMPR1 (human GMPR type 1) (Homo sapiens, UniProt P36959); experiment: NADPH consumption at […] nm, Hill fit; format: biochemical
T3 construct: recombinant
T3 sequence (P36959 1-345): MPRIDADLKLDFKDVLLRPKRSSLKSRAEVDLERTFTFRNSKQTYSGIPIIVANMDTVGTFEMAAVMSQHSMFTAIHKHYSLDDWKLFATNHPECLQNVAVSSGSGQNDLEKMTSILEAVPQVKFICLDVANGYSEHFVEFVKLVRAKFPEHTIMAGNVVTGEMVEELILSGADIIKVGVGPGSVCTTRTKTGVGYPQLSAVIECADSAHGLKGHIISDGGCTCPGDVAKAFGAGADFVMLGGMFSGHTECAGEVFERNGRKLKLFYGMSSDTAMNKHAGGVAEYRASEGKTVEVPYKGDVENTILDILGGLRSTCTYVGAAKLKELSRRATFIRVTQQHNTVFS

[4] = target: T1, T. brucei guanosine 5'-monophosphate reductase (TbGMPR); experiment: NADPH consumption at […] nm, Lineweaver-Burk, competitive inhibition fit (IC50 […]); format: biochemical
[5] = substrate: NC(=O)C1=CN([C@@H]2O[C@H](COP(=O)(O)OP(=O)(O)OC[C@H]3O[C@@H](n4cnc5c(N)ncnc54)[C@H](OP(=O)(O)O)[C@@H]3O)[C@@H](O)[C@H]2O)C=CC1; experiment: purified protein; format: biochemical, Trypanosoma brucei; conditions: varied: cofactor
[6] = substrate: Nc1nc2c(ncn2[C@@H]2O[C@H](COP(=O)(O)O)[C@@H](O)[C@H]2O)c(=O)[nH]1; experiment: purified protein; format: biochemical, Trypanosoma brucei; conditions: NADPH
[7] = substrate: NC(=O)C1=CN([C@@H]2O[C@H](COP(=O)(O)OP(=O)(O)OC[C@H]3O[C@@H](n4cnc5c(N)ncnc54)[C@H](OP(=O)(O)O)[C@@H]3O)[C@@H](O)[C@H]2O)C=CC1; experiment: purified protein; conditions: varied: cofactor
[8] = substrate: Nc1nc2c(ncn2[C@@H]2O[C@H](COP(=O)(O)O)[C@@H](O)[C@H]2O)c(=O)[nH]1; experiment: purified protein; format: biochemical, Homo sapiens; conditions: NADPH

B1: T. brucei guanosine 5'-monophosphate reductase (TbGMPR) (Trypanosoma brucei brucei TREU927) (protein)
chain: MSFNESASIPTGLTYDDVLIIPQHSRVTSRKEVNTTTRLSRNVKLSIPIVASNMDTVCEQRMAVAMAREGGIGILHRFCSIEEQCAMLREVKRAQSFLIESPRIILPHETAREAWEGLNWKGRVGGVGCLLVVNCKNERKLLGIITRHDLKLADESTTVESLMTPVDKMVVSTNTSISLEEVTHLMRKGRTANVPIVGQNGQLLYLVTLSDVVKLRKNKQASLDSRGRLLVGAAVGVKKDDMNRAIRLVEAGADVLVVDIAHGHSDLCINMVKRLKGDPRTASVDIIAGNIASAEAAEALIDAGADGLKIGVGPGSICITRLVAGAGVPQLSAVLACTRVARRRGVPCIADGGLRTSGDISKAIGAGADTVMLGNMLAGTDEAPGRVLVKDGQKVKIIRGMAGFGANLSKAERERTQDEDVFSSLVPEGVEGSVACKGPVGPIVRQLVGGLRSGMSYSGAKSIEEMQRRTRFVRMTGAGLRESGSHGVAKL
notes: recombinant TbGMPR coding region, GST fusion in E. coli, tag cleaved with PreScission protease
Km [5]: 12.3 ± 0.8 µM
Km [6]: 89.3 ± 9.0 µM

B2: HsGMPR1 (human GMPR type 1) (Homo sapiens) (protein)
chain: MPRIDADLKLDFKDVLLRPKRSSLKSRAEVDLERTFTFRNSKQTYSGIPIIVANMDTVGTFEMAAVMSQHSMFTAIHKHYSLDDWKLFATNHPECLQNVAVSSGSGQNDLEKMTSILEAVPQVKFICLDVANGYSEHFVEFVKLVRAKFPEHTIMAGNVVTGEMVEELILSGADIIKVGVGPGSVCTTRTKTGVGYPQLSAVIECADSAHGLKGHIISDGGCTCPGDVAKAFGAGADFVMLGGMFSGHTECAGEVFERNGRKLKLFYGMSSDTAMNKHAGGVAEYRASEGKTVEVPYKGDVENTILDILGGLRSTCTYVGAAKLKELSRRATFIRVTQQHNTVFS
notes: recombinant
Km [7]: 34.8 ± 4.3 µM
Km [8]: 22.1 ± 2.2 µM

More lines, now with the values ahead:

IC50 [1]: 23.7 ± 1.9 µM
IC50 [2]: 69.3 ± 7.8 µM
IC50 [3]: 120 ± 16.1 µM
Molecule: NC(=O)c1ncn([C@@H]2O[C@H](COP(=O)(O)O)[C@@H](O)[C@H]2O)c1O [MZP, mizoribine 5’-monophosphate]

Ki [4]: 4.46 ± 0.46 µM
Molecule: NC(=O)c1ncn([C@@H]2O[C@H](COP(=O)(O)O)[C@@H](O)[C@H]2O)n1 [RMP, ribavirin 5'-monophosphate]
